Results as given in ChEMBL document CHEMBL5723585, “Data for DCP probe JNJ-54082730” (2024).

Key:
[1] = target: cGMP-dependent 3',5'-cyclic phosphodiesterase (Homo sapiens, UniProt O00408); test: Scintillation proximity assay (PDE2A) ( Mean (95% Confidence Interval) = 0.8 -1 nM; Ki = 0.7 nM)
[2] = target: cGMP-dependent 3',5'-cyclic phosphodiesterase (Rattus norvegicus) (UniProt Q01062); test: Target occupancy in striatum ( p.o.dose, 1 h); format: organism-based
[3] = target: cAMP and cAMP-inhibited cGMP 3',5'-cyclic phosphodiesterase 10A (Homo sapiens, UniProt Q9Y233); test: Scintillation proximity assay (PDE10A)
Phosphodiesterase 3 = Phosphodiesterase 3 (Homo sapiens, UniProt Q14432+Q13370); test: Scintillation proximity assay (PDE3); format: protein assay

Sequence of cGMP-dependent 3',5'-cyclic phosphodiesterase (Rattus norvegicus) (Q01062 whole entry): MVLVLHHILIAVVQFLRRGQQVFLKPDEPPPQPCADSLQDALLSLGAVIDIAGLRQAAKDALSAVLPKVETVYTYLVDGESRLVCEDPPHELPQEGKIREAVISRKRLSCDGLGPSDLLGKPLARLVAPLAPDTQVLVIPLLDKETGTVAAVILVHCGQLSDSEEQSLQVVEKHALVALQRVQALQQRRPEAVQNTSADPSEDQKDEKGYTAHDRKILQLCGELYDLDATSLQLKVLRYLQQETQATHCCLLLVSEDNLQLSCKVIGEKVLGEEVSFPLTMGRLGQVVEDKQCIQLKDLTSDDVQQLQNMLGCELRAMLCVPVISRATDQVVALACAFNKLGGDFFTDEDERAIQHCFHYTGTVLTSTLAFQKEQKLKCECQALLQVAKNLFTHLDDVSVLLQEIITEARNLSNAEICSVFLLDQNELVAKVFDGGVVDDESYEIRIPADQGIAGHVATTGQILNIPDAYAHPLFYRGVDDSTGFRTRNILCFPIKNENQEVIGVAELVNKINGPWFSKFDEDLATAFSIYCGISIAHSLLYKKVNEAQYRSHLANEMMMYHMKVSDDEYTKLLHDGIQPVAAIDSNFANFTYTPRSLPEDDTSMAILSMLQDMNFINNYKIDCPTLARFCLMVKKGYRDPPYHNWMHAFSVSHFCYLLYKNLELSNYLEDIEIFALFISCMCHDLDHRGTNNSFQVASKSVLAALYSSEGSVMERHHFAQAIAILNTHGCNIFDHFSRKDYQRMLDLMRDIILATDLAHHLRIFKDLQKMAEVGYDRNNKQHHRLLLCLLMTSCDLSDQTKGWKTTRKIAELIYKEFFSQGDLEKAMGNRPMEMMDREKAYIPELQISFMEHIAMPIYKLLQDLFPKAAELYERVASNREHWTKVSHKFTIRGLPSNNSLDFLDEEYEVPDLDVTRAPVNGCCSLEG
Sequence of cGMP-dependent 3',5'-cyclic phosphodiesterase (O00408 whole entry): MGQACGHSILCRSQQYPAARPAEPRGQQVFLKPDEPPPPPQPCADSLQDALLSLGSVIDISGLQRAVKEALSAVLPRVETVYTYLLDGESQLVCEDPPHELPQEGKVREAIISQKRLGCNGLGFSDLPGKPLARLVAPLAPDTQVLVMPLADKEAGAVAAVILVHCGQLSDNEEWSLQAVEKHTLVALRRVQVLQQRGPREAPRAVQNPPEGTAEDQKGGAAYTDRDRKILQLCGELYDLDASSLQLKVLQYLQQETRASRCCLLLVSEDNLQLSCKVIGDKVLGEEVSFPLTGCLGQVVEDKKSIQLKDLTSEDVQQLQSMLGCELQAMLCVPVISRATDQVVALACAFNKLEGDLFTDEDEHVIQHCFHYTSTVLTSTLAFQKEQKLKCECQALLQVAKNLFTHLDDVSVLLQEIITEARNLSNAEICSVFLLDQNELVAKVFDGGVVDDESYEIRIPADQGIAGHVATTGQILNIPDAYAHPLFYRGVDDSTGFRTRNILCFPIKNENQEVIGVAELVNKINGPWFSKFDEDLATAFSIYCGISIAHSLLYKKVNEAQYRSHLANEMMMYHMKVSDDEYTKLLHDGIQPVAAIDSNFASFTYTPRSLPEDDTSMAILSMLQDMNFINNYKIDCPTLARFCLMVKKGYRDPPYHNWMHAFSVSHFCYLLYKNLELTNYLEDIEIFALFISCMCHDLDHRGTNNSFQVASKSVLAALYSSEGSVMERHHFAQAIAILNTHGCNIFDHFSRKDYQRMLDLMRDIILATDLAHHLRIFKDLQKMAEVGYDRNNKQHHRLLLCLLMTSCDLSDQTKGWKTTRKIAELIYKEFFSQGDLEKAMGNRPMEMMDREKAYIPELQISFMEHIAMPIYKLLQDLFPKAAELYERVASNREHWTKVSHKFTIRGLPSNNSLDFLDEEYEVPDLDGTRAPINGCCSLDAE
Sequence of cAMP and cAMP-inhibited cGMP 3',5'-cyclic phosphodiesterase 10A (Q9Y233 whole entry): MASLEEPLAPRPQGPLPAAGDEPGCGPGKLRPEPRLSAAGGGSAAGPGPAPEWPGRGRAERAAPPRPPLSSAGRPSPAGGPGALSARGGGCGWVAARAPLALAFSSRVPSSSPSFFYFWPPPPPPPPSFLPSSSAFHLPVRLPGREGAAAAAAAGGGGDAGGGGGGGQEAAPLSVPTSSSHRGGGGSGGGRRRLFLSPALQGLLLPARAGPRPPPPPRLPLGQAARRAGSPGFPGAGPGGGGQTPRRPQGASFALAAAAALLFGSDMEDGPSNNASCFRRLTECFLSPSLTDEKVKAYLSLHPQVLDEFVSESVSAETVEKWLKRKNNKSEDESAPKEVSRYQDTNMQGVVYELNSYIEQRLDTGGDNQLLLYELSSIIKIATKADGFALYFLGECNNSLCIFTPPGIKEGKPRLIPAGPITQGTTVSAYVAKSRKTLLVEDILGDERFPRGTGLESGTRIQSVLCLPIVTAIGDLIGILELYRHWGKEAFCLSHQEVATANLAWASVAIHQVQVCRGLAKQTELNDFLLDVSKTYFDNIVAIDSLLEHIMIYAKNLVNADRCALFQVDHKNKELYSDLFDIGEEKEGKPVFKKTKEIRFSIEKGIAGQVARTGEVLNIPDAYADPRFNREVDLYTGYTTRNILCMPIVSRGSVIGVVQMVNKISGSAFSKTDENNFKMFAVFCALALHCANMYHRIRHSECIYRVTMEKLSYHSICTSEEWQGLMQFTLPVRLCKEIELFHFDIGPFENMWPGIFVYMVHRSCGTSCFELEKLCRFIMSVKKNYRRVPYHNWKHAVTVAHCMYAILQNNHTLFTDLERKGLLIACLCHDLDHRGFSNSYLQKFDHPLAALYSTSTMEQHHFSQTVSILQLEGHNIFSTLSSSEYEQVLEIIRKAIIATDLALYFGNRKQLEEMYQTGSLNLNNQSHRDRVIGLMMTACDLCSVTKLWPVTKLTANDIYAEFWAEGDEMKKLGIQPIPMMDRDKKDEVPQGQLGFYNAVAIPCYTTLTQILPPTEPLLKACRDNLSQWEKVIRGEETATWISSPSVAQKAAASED

IC50 [1]: 0.097 µM (not active)
ED50 [2]: > 80 mg/kg
IC50 [3]: > 10 µM (not active)
IC50 (Phosphodiesterase 3): > 10 µM
Compound: Cc1cc(C(=O)N2CC[C@H](C)[C@@H](c3cc(C(F)F)nc4ncnn34)C2)cc(C)n1
